Data: patent publication US11008291B2, “Methods of forming carbene-functionalized composite materials” (Queen's University at Kingston, priority 2015, dated 2021)

Tests used:
[1] = Chemical stability tests of NHC films on Au(111) (XPS); assay type: physicochemical; settings: pH 2, THF 68° C., water RT 1 month, water 100° C., decalin, 1% H2O2; 24 h (FIGS. 7a-7g)
Protocol: All films were prepared using the hydrogen carbonate salt (carbene precursor) 3a and the solution deposition method previously described. Data for stability measurements are given in Chemical Stability Results.
NHC films derived from iPr2bimy(H)[HCO3] (3a) were submerged in freshly prepared unbuffered solutions of varying pH (pH 2 or pH 12) in Ace Glass pressure tubes at 25° C. for 24 h. Experiments were conducted under N2 gas to minimize the possibility of pH change due to adsorption of atmospheric CO2. After this time, functionalized surfaces were rinsed in deionized water (3×2 mL) and dried in an N2 gas stream. The pH values of the solutions were adjusted using concentrated NaOH and HCl solutions in deionized water. Unbuffered solutions were employed in order to avoid potential adsorption effects of buffer ions from solution.
NHC films derived from iPr2bimy(H)[HCO3] (3a) were placed in Ace Glass pressure tubes and 3 mL of freshly distilled tetrahydrofuran (THF) was added. The tube was purged with nitrogen gas, sealed and heated to 68° C. for 24 h. After this time, the sample was cooled to RT, rinsed in THF (2×5 mL), and dried under a nitrogen gas stream.
NHC films derived from iPr2bimy(H)[HCO3] (3a) were placed in Ace Glass pressure tubes and 2 mL of decalin were added. The tubes were purged with nitrogen gas, sealed and heated to either 100° C. or 190° C. for 24 h. […]

[2] = Temperature programmed desorption of NHC films from Au; assay type: physicochemical; settings: TPD, FIG. 2
Protocol: Vapor deposition experiments were conducted in three separate stainless steel UHV chambers hosting an Ar ion sputtering gun and annealing facilities for sample cleaning. TPD data were collected in a UHV chamber (base pressure P=[…]) equipped with a quadrupole mass spectrometer (SPECTRA, Microvision Plus) in direct line-of-sight with the crystal, and a LEED/Auger spectrometer (SpectaLEED, Omicron). STM images were recorded in a third chamber (base pressure=[…]) equipped with a variable temperature scanning tunneling microscope (Omicron), and LEED optics. An electrochemically etched W tip was used for STM imaging typically employing bias voltages of ±0.6 V and tunneling currents of 300 pA. Image processing and filtering have been applied to the STM data using WSxM.

[3] = Bench stability and solubility of carbene precursors; assay type: physicochemical
[4] = target: bovine serum albumin (BSA) (Bos taurus, UniProt P02769); experiment: Ferulic acid / BSA interaction on NHC-CM5 chip (SPR); assay type: binding; settings: 100, 200, 400, 800 μM; FIG. 20
Protocol: NHC-CM5 (500 KDa) chip was used for this study. Bovine Serum Albumin (BSA) was immobilized (covalently bound to the sensor surface) using amine-coupling chemistry. PBS (10 mM phosphate, 138 mM NaCl, 2.7 mM KCl, pH 7.4) was used as running buffer. […] Final immobilization level of BSA of this study was around 3500 RU. Unmodified dextran surface was used as a reference surface (FC1).
Ferulic acid was first serially diluted into running buffer to final concentrations of 100, 200, 400, 800 μM. To test data quality and further equilibrate the surfaces, four warm-up buffer cycles were performed at a flow rate of 30 μl/min. Then, ferulic acid was injected over the reference and BSA surfaces at a flow rate of […] cycle consisted of a 2-min waiting period for monitoring of the baseline stability. Then the ferulic acid/BSA complex was allowed to associate and dissociate for 3-min and 3-min, respectively, and 20 mM NaOH (30 s) was used as the regeneration solution. The data was processed by subtracting from reference flow cell and blank injections—double referencing method.

HSA = HSA (Homo sapiens, UniProt P02768); experiment: Opioid/protein interactions on HSA-immobilized NHC-CM5 chip (SPR); assay type: binding; settings: for Detection of opioid on HSA surface of NHC-CM5 chip: 50, 100, 200, 400 μM, FIG. 21A-D
Protocol: NHC-CM5 chip was used for this study. HSA was immobilized using amine-coupling chemistry. […] Three 30s-injections of 50 mM NaOH was used to wash off non-covalently bound HSA and to further stabilize the baseline. […] Unmodified dextran surface was used as a reference surface.
Opioids were first serially diluted into running buffer to final concentrations of 50, 100, 200, 400 μM. To test data quality and further equilibrate the surfaces, 4 warm-up buffer cycles were performed at a flow rate of 30 μl/min. Opioids samples were injected over the reference and HSA surfaces at a flow rate of 30 μl/min. Replicate injections of each drug concentration were analyzed. Each cycle consisted of a 1-min waiting period for monitoring of the baseline stability. Then the drug/HSA complex was allowed to associate and dissociate for 60 s and 30 s, respectively. […] Data obtained in the reference flow cell was subtracted from that obtained in the HSA immobilized flow cell.

HSA, sequence (P02768 25-609): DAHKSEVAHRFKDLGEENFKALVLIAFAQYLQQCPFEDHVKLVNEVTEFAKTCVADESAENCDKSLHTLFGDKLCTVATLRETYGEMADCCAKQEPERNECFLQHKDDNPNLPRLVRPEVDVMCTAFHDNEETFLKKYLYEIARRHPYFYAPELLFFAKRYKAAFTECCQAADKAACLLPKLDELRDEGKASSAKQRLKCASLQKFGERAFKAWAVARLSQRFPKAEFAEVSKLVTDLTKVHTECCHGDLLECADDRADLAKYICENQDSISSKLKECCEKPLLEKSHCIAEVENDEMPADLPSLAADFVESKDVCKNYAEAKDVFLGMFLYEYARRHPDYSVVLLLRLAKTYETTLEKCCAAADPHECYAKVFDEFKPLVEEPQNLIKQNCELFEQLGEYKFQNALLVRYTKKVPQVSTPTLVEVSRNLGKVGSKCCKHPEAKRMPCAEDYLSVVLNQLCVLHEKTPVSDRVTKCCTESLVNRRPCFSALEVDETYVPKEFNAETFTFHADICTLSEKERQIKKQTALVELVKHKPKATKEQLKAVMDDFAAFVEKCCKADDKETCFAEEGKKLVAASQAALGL
bovine serum albumin (BSA), sequence (P02769 25-607): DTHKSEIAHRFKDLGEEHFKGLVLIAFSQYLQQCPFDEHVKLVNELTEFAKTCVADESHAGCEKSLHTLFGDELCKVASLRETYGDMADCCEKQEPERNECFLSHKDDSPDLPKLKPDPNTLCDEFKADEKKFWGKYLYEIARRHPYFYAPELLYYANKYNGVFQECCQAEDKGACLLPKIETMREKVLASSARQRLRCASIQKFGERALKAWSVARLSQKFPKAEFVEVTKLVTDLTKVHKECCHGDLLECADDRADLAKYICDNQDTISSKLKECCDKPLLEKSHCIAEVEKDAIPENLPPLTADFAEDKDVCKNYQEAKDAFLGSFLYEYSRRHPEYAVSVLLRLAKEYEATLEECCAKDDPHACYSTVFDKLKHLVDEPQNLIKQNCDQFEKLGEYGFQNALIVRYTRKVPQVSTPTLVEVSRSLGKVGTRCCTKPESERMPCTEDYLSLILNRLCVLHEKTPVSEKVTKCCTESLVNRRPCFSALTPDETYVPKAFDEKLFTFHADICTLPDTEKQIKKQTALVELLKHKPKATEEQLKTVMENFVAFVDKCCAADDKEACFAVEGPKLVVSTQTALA

Structure (SMILES): CC(C)n1c[n+](C(C)C)c2ccccc21 [Compound 3a, 1,3-Diisopropylbenzimidazolium hydrogen carbonate]
- XPS spectra of NHC SAM on gold derived from the precursor, before vs after treatment [1]: remained unchanged
- Maximum desorption temperature of NHC film from Au [2]: 605 K
- Solubility in THF and DCE ([3]; THF, DCE): mild solubility
- Stability of the solid ([3]; ambient, in air): bench-stable
- Solubility in ethanol and methanol ([3]; ethanol, methanol): soluble
- Solubility in water ([3]; water): highly soluble

Structure (SMILES): COc1cc(C=CC(=O)O)ccc1O [ferulic acid, 4-hydroxy-3-methoxycinnamic acid]
- Sensing of ferulic acid by BSA pre-immobilized NHC-CM5 surface [4]: can sense

Structure (SMILES): CC(=O)Oc1ccc2c3c1O[C@H]1[C@@H](OC(C)=O)C=C[C@H]4[C@@H](C2)N(C)CC[C@@]341 [heroin]
- Detection of opioid on HSA surface of NHC-CM5 chip (HSA): successfully detected
- Detectability at the lowest concentration (HSA; lowest of 50, 100, 200, 400 μM): not detectable

Structure (SMILES): CNC1(c2ccccc2Cl)CCCCC1=O (stereo not shown) [ketamine]
- Detection of opioid on HSA surface of NHC-CM5 chip (HSA): successfully detected
